Data on 1 molecule can be found in patent US9072751B2, “Na/K-ATPase ligand” (priority 2006, dated 2015).

One data set deals with SYF+Src line. Description: In vitro wound healing (scrape injury) in SYF+Src fibroblasts. Particulars: 12 hour pretreatment. The format is cell-based, mouse. The protocol:
Next, we examined whether wound healing might be advantageously impacted by cardiotonic steroids. We grew a mouse fibroblast cell line, the SYF+Src line to confluence and make injuries by scraping with a pipette tip.
Representative images from fibroblasts at 3, 7 and 12 hours following injury. Quantification of wound closure from fibroblast cultures. Data represents N=6 separate pairs of experiments, each of which involves 3 determinations at each time point. Data shown as mean+/−SEM. **<0.01. We proposed to enhance skin fibroblast collagen production by topical or injected administration of cardiotonic steroids and prevent or reverse aging related loss of skin tone.

The subject of data set [1] is isolated cardiac fibroblasts. Description: Procollagen stability after cycloheximide in cardiac fibroblasts. The format is cell-based, rat. Particulars: 10 nM. The protocol: (§1) To further examine the molecular basis of this cardiac fibrosis, isolated cardiac fibroblasts were subjected to increase doses of MBG (10^−10, 10^−9, and 10^−8 M). […] Using collagenase digestion, we observed that the vast majority of the proline incorporation was into collagen. Using standardized RT-PCR, we observed a doubling of mRNA for collagen-1 at 24 hours in response to 10 nM of MBG.
(§2) Representative Western blot for procollagen and quantitative densitometric data obtained in response to different doses of (a) MBG (all N=10), (b) MBG 10 nM contrasted with different doses of ouabain (0.1 to 100 nM) and digoxin (10 nM; all N=8). c, ouabain sensitive Rb uptake as a function of MBG and ouabain concentration (N=4 at each concentration for both MBG and ouabain; data expressed as fraction of control). d, relative proline incorporation in the supernatant and matrix, both will and without collagenase digestion (total). Each group (controls and different doses of MBG) contains N=7 replicants. The difference between the total and after collagenase digestion is reported as collagen. […] Bars on quantitative graphs represent the mean.+−.SEM. *P<0.05 and **P<0.01 vs control.

Data set [2] concerns isolated cardiac fibroblasts. Description: Collagen-1 mRNA by standardized RT-PCR in cardiac fibroblasts. Format: cell-based, rat. Particulars: 24 hours, 10 nM. How it is done:
Standardized RT-PCR was used to measure gene expression, with GAPDH transcript used as the housekeeping gene, as reported previously.
as §1, §2

For the next data set, the system named is SYF+ cells. Description: Procollagen expression in SYF+ cells. The format is cell-based. Conditions: MBG 10 nM. An excerpt: (§3) To examine whether cardiotronic steroids induced collagen synthesis by signaling through the Na/K-ATPase, we performed the following studies. First, we used pharmacological antagonism at several steps in the Na/K-ATPase cascade. Specifically, we used pharmacological antagonism of Src activation with PP2, nonspecific tyrosine kinase inhibition with herbimycin, inhibition of EGFR transactivation with AG1478, and nonspecific antioxidant administration with N-acetyle cysteine. […] Next we performed studies in the SYF and SYF+ cells (details available in the online supplement).
(§4) The effects of PP2 (1 μmol/L), herbimycin (1 μmol/L), AG1478 (250 nM), and N-acetyl cysteine (2.5 mmol/L) on MBG (10 nM) stimulation of procollagen expression also were found. The PP2, herbimycin AG1478, and N-acetyl cysteine were administered from 2 hours before the addition of MBG and continued throughout the 24 hours of MBG incubation (total of 26 hours). Each bar represents the mean.+−.SEM of n=8 experiments. b, effects of PP2 (1 μmol/L) and N-acetyle cysteine (2.5 mmol/L) on MBG (10 nM)-stimulated proline incorporation into collagen. Again, the PP2 an N-acetyl cysteine were added 2 hours before exposure to MBG. Each bar represents the mean.+−.SEM of N=5 experiments. c, effects of MBG 10 nM on procollagen content in SYF and SYF+ cells. Representative Western blots are shown above quantitative data. […]

A further data set has as its system dermal fibroblasts. Description: Collagen expression in human dermal fibroblasts. The format is cell-based. Conditions: 5 or 10 nM. An excerpt: We next examined whether skin fibroblasts lines had similar response. This was done with dermal fibroblasts kindly provided by Dr. Bashar Kahaleh. […] The magnitude of this response is illustrated by comparison to maximal doses of TGFβ, the “classic” stimulus for fibrosis (see below). In addition, we observed that an immortalized fibroblast line responded similarly to MBG, ouabain and digoxin.
Response of dermal fibroblasts to MBG as compared with TGF beta. Note that increase in collagen expression in MBG is approximately 10 fold with 5 or 10 nM MBG.

The test system of data set [3] is isolated cardiac fibroblasts. Description: Radiolabeled proline incorporation into collagen (collagen synthesis) in cardiac fibroblasts. The format is cell-based, rat. Conditions: 10^−9 and 10^−8 M. How it is done: Preparation of adult rat cardiac fibroblasts was performed as described previously by Brilla et al. with modifications.
Collagen synthesis rates were determined by the method of Nishida et al. with modification.
as §1
Representative Western blot for procollagen and quantitative densitometric data obtained in response to different doses of (a) MBG (all N=10), (b) MBG 10 nM contrasted with different doses of ouabain (0.1 to 100 nM) and digoxin (10 nM; all N=8). c, ouabain sensitive Rb uptake as a function of MBG and ouabain concentration (N=4 at each concentration for both MBG and ouabain; data expressed as fraction of control). d, relative proline incorporation in the supernatant and matrix, both will and without collagenase digestion (total). Each group (controls and different doses of MBG) contains N=7 replicants. The difference between the total and after collagenase digestion is reported as collagen. The matrix is the sample that was obtained after removing supernatant and scraping the culture dish. e, mRNA for collagen 1 in MBG-treated (10 nM; N=8) or control (N=8) fibroblasts. f, procollagen stability after cycloheximide treatment. Time 0 is 1 hour after incubation with cycloheximide (20 μg/mL). […] Least-square regression line fit to control (CTL) and MBG data. Bars on quantitative graphs represent the mean.+−.SEM. *P<0.05 and **P<0.01 vs control.
The effects of PP2 (1 μmol/L), herbimycin (1 μmol/L), AG1478 (250 nM), and N-acetyl cysteine (2.5 mmol/L) on MBG (10 nM) stimulation of procollagen expression also were found. The PP2, herbimycin AG1478, and N-acetyl cysteine were administered from 2 hours before the addition of MBG and continued throughout the 24 hours of MBG incubation (total of 26 hours). Each bar represents the mean.+−.SEM of n=8 experiments. b, effects of PP2 (1 μmol/L) and N-acetyle cysteine (2.5 mmol/L) on MBG (10 nM)-stimulated proline incorporation into collagen. Again, the PP2 an N-acetyl cysteine were added 2 hours before exposure to MBG. Each bar represents the mean.+−.SEM of N=5 experiments. c, effects of MBG 10 nM on procollagen content in SYF and SYF+ cells. Representative Western blots are shown above quantitative data. SYF blots loaded with 15 μg of protein and SYF+blots loaded with 10 μg of protein. Each bar represents the mean.+−SEM of N-6 determinations In each group. **[…] vs. control.
The effect of 24 hours of MBG (1 and 10 nM) on TGF-β, Smad 2/3, Smad 4, and pSmad 2/3 expression determined by Western blot. b and c, effects of 24 hours of MBG (10 nM), TGFβ(5 ng/mL), and the TGF-β receptor antagonist SB431542 ([…] on procollagen-1 expression (Western blot) and radiolabeled proline incorporation, respectively also were carried out. SB431542 was added 2 hours before exposure to either TGFβ or MBG (total of 26-hour exposure). Each bar represents the mean.+−.SEM of 6 to 8 determinations. *P<0.05, **P<0.01 vs. control.

Data set [4] in a line: Plasma MBG and aldosterone 4 weeks after MBG minipump infusion in rats. The format is in vivo, Sprague-Dawley rats. Conditions: mean ± SEM. The protocol:
Male, Sprague-Dawley rats were used for all of the studies. All of the animal experimentation described in the article was conducted in accordance with the National Institutes of Health Guide for the Care and use of Laboratory Animals using protocols approved by the Medical University of Ohio Institutional Animal Use and Care Committee.
Briefly, Sprague-Dawley rats weighing.apprxeq.250 g at the time of surgery were subjected to either sham surgery with no MBG infusion (Sham), sham surgery with placement of a minipump infusing MBG at 10 μg/kg per day (MBG), PNx, and PNx after immunization against MBG (PNx-IM). MBG of extremely high purity (>99%) was isolated from the venom of Bufa marinas by Kennedy et al. In addition to these maneuvers, a group of PNx animals was subjected to adrenalectomy as well (PNx-ADx).
(determined after extraction on a C-18 column using DELPHIA as described previously), aldosterone (determined with ELISA kit 10004377, Cayman Chemical) and cardiac immunohistochemistry (vida infra) were assessed 4 weeks after surgery.

The test system of a further data set is SYF cells. Description: Procollagen expression in SYF cells. Format: cell-based. Conditions: MBG 10 nM.
Source text: as §3, §4

As for `C[C@]12CC[C@H](O)C[C@@]1(O)CC[C@@H]1[C@@H]2CC[C@]2(C)[C@@H](c3ccc(=O)oc3)C[C@H]3O[C@]132` [MBG, marinobufagenin], in the data set on SYF+Src line, the “Closure of the experimental lesion” value is on record as “markedly accelerated”. Also, the “Procollagen stability (procollagen-1 expression after cycloheximide)” value in data set [1] was “did not detect any increases”. Also, the “mRNA for collagen-1” value in data set [2] is given as “doubling”. In addition, the “Upregulation of procollagen expression in SYF+ cells” value with SYF+ cells is “very similar way as the primary cardiac fibroblast cultures”. Besides, the “Increase in collagen expression” value with dermal fibroblasts is given as “approximately 10 fold”. For the same molecule, in data set [3], the “Proline incorporation into total protein, matrix and supernatant” value is listed as “significant increases”. For the same molecule, in data set [4] (MBG infusion 10 μg/kg per day by minipump), the “Plasma MBG” value came out at 484 ± 47 pmol/L. Besides, in data set [4] (MBG infusion 10 μg/kg per day), the Plasma aldosterone is reported as 205 ± 35 pg/mL. The “Response of procollagen expression in SYF cells” value in the data set on SYF cells was “essentially no response”.
